This note sets out measurements from ChEMBL document CHEMBL5696442, “Discovery of type II inhibitors of TGFβ-activated kinase 1 (TAK1) and mitogen-activated protein kinase kinase kinase kinase 2 (MAP4K2)” (J Med Chem, 2015).

Each structure is given as a SMILES string. The source made the active and inactive calls. No cut-off for these calls is given here.

In general, inhibition refers to the drop in the measured response relative to a control, in per cent. As a reminder, the residual activity is the signal under treatment as a percentage of the control signal.

Experiment [1] deals with Tyrosine-protein kinase Srms (Homo sapiens) (UniProt Q9H3Y6). As to the kind of experiment: Inhibition of SRMS (unknown origin) at 1 uM by Ambit Kinomescan binding assay relative to control.
In experiment [2] the target is T1, Serine/threonine-protein kinase Nek9 (Homo sapiens) (UniProt Q8TD19).
T1 sequence (whole entry): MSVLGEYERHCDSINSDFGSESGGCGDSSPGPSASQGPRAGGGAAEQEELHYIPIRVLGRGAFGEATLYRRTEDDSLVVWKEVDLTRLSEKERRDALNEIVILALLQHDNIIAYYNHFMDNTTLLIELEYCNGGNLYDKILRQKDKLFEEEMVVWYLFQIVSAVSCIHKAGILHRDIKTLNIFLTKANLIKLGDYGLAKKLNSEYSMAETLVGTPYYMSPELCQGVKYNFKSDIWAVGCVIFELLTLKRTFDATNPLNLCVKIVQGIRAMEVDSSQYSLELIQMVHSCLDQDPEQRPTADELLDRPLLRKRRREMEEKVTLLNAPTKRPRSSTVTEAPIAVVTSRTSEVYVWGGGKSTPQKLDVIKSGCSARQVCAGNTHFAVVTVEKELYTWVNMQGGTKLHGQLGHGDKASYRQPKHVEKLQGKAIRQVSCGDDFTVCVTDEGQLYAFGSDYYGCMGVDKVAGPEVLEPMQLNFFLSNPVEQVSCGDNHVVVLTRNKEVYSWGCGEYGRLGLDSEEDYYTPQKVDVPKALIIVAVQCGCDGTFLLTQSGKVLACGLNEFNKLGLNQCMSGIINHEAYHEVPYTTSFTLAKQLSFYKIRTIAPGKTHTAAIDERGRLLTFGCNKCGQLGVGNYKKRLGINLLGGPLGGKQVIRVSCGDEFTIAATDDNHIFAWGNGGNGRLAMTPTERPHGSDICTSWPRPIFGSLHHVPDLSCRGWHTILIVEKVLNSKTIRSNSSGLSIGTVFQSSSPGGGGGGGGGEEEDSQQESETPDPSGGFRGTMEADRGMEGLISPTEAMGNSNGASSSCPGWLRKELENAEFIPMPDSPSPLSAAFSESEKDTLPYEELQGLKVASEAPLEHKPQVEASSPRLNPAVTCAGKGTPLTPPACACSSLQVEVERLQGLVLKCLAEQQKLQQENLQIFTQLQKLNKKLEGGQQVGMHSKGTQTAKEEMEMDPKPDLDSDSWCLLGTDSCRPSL
The experiment is described as follows: Inhibition of NEK9 Lys2 labeling site in human A-375 cells at 0.5 uM by KiNativ Profiling analysis relative to control. The format is cell-based.

Experiment [3] has as its target Serine/threonine-protein kinase PAK 3 (Homo sapiens) (UniProt O75914). The experiment is described as follows: Inhibition of PAK3 (unknown origin) at 1 uM by Ambit Kinomescan binding assay relative to control; values are per cent of control.
Experiment [4] addresses Epidermal growth factor receptor (Homo sapiens) (UniProt P00533). The experiment is described as follows: Inhibition of EGFR Lys1 labeling site in human A-375 cells at 5 uM by KiNativ Profiling analysis relative to control. The format is cell-based.
The target in experiment [5] is T2, Serine/threonine-protein kinase Nek1 (Homo sapiens) (UniProt Q96PY6).
T2 sequence (whole entry): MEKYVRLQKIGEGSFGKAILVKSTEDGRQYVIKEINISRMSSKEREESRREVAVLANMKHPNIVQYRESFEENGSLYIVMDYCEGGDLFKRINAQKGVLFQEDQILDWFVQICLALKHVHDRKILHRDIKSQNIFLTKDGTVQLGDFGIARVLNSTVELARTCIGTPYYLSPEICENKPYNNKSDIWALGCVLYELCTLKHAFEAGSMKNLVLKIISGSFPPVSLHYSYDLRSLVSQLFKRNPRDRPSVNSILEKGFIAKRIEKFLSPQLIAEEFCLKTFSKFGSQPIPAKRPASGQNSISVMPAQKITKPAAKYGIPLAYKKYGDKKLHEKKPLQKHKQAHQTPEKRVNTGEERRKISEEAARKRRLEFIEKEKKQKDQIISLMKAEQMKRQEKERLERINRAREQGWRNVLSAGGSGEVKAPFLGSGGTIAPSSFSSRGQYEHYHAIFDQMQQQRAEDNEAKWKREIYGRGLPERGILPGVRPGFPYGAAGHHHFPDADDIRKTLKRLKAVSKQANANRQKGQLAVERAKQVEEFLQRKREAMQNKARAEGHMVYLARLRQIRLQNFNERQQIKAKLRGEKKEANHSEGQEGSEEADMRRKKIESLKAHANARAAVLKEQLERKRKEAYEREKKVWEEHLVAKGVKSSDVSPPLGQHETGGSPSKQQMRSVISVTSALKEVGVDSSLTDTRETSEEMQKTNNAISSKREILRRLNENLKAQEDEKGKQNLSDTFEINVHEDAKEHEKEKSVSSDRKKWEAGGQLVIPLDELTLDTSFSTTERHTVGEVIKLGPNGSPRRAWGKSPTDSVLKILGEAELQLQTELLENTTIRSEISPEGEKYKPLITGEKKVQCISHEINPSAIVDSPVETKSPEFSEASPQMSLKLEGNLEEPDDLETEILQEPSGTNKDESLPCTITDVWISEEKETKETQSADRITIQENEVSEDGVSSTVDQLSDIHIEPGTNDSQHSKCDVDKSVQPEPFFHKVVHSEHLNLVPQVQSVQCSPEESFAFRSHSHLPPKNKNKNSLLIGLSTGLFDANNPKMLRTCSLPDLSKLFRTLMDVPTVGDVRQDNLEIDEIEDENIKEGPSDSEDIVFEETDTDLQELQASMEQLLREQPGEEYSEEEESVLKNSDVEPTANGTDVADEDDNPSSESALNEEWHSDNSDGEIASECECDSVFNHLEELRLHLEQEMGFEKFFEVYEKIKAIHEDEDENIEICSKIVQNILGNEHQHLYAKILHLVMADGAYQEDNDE
The experiment is described as follows: Inhibition of NEK1 Lys2 labeling site in human A-375 cells at 5 uM by KiNativ Profiling analysis relative to control. The experiment is classed as cell-based.

Experiment [6] concerns the target T3, Aurora kinase A (Homo sapiens) (UniProt O14965).
T3 sequence (whole entry): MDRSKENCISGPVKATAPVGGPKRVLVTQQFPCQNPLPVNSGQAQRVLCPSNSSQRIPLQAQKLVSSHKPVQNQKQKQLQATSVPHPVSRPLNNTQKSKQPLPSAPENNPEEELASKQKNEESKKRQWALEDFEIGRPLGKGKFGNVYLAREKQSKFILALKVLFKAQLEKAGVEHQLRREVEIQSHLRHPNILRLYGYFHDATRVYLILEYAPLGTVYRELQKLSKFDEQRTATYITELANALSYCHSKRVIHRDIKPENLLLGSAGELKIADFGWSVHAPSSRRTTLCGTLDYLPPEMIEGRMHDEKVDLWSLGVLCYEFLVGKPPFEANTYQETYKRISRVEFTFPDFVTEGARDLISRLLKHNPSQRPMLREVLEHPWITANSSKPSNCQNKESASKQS
As to the kind of experiment: Inhibition of AurA K2 labeling site harbouring VIHRDIKPENLLLGSAGELK in human Huh-7 cells at 1 uM by KiNativ Profiling analysis relative to control. The experiment is classed as cell-based.

Serine/threonine-protein kinase PAK 3 (Homo sapiens), sequence (O75914 whole entry, looked up): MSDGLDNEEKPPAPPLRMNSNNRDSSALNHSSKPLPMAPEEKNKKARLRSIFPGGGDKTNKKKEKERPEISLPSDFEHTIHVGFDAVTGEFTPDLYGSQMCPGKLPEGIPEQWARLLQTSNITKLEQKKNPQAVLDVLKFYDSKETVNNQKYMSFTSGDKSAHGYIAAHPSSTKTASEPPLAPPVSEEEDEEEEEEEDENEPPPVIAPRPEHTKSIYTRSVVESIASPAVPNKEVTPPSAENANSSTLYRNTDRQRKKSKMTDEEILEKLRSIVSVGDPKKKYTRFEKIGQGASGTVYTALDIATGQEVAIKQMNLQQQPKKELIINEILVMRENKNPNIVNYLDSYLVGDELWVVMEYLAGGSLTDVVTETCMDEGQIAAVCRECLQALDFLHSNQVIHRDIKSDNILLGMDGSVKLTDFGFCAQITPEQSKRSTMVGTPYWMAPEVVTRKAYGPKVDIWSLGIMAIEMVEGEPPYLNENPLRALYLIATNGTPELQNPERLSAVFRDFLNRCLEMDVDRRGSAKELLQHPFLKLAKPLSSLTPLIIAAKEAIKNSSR
Tyrosine-protein kinase Srms (Homo sapiens), sequence (Q9H3Y6 whole entry): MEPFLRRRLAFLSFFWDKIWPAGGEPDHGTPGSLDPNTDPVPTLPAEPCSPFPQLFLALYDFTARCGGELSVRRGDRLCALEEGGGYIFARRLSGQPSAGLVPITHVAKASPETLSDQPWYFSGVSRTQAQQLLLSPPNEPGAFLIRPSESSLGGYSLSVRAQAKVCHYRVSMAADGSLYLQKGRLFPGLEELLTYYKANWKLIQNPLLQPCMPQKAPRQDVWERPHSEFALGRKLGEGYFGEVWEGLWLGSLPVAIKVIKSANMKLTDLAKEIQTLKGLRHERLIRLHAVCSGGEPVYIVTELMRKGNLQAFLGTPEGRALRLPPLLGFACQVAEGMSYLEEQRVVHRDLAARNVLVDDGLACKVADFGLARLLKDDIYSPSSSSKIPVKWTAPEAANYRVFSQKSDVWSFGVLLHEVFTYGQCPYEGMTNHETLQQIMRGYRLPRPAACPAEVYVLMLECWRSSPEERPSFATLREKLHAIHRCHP
Epidermal growth factor receptor (Homo sapiens), sequence (P00533 whole entry): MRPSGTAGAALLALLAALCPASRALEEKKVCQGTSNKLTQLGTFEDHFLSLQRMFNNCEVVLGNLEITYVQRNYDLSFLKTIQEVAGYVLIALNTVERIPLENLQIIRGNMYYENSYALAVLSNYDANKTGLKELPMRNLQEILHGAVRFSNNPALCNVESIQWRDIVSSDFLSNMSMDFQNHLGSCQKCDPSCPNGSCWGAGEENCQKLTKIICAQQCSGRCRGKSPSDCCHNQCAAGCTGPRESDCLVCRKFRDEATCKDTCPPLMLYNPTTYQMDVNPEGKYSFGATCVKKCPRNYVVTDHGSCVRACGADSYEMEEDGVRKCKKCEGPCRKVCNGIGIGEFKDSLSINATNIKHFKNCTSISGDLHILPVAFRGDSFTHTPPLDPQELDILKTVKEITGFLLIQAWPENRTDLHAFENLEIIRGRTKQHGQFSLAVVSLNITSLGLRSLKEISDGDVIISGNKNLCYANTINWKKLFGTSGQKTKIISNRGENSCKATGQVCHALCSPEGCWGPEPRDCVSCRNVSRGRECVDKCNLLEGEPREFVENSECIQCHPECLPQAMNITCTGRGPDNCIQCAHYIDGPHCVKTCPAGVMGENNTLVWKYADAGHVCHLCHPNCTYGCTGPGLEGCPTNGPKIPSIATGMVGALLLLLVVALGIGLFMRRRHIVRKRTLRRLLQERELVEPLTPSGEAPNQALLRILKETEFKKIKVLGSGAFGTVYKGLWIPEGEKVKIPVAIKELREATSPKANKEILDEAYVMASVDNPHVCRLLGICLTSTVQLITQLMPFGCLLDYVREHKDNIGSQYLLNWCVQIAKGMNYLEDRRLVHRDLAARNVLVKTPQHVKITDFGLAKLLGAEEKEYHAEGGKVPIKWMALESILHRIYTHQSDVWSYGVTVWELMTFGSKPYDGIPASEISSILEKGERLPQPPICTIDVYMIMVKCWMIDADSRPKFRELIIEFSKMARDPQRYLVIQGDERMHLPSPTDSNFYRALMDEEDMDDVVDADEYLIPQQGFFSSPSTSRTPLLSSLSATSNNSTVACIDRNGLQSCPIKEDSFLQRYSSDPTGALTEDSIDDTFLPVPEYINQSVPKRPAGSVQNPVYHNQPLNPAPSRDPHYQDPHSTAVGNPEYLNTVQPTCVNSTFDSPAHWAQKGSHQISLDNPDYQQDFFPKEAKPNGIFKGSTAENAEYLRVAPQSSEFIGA

With `CCN1CCN(Cc2ccc(NC(=O)c3ccc(C)c(/C=C/c4cnc5[nH]ccc5c4OC)c3)cc2C(F)(F)F)CC1`, the results for the inhibition in experiment [1] and in experiment [2] were 34% and 10.4%, respectively. Moreover, the residual activity in experiment [3] worked out at 66%.
On to `CCN1CCN(Cc2ccc(NC(=O)c3ccc(C)c(Oc4ccnc5[nH]ccc45)c3)cc2C(F)(F)F)CC1`, for which the inhibition in experiment [4] is -1.5%; in experiment [5] it was -7.1%. The inhibition entry in experiment [6] was “inactive”.
